This is an account of results in patent publication US20060166992A1, “Heterocyclically substituted imidazotriazines” (Bayer Healthcare A G, priority 2002, published 2006).

The target of one test is T1, PDE 10A (Homo sapiens, UniProt Q9Y233).
T1 construct: is expressed recombinantly in full length in Sf9 insect cells; made in house; host or cells: Sf9 insect cells (Bac-to-Bac baculovirus expression system)
Put plainly: Inhibition of PDE 10A (scintillation proximity assay, [3H]cAMP substrate). In kind it is biochemical. The note with it: recombinant full-length PDE 10A expressed in Sf9 insect cells; 60 min at 20° C. As for the experimental part:
PDE 10A (WO 01/29 199, FIG. 1A) is expressed recombinantly in full length in Sf9 insect cells (Invitrogen, Carlsbad, Calif.) with the aid of the Bac-to-Bac™ Baculovirus expression system from Life Technologies (Gaithersburg, Md.). 48 h after infection, the cells are harvested and suspended in 20 ml (per 11 of culture) of lysis buffer (50 mM tris HCl, pH 7.4, 50 mM NaCl, 1 mM MgCl2, 1.5 mM EDTA, 10% glycerol plus 20 μl of Protease Inhibitor Cocktail Set II [CalBiochem, La Jolla, Calif. USA]). The cells are treated with ultrasound at 4° C. for 1 minute and subsequently centrifuged at 10 000 rpm for 30 minutes at 4° C. The supernatant (PDE 10A preparation) was collected and stored at −20° C.
The test substances are dissolved in 100% DMSO for the determination of their in vitro action on PDE 10A and serially diluted. Typically, dilution series from 200 μM to 1.6 μM are prepared (resulting final concentrations in the test: 4 μM to 0.032 μM). 2 μl of the diluted substance solutions in each case are introduced into the hollows of microtiter plates (Isoplate; Wallac Inc., Atlanta, Ga.). Subsequently, 50 μl of a dilution of the PDE 10A preparation described above are added. The dilution of the PDE 10A preparation is chosen such that during the later incubation less than 70% of the substrate is reacted (typical dilution: 1:10 000; dilution buffer: 50 mM tris/HCl pH 7.5, 8.3 mM MgCl2, 1.7 mM EDTA, 0.2% BSA). The substrate, [5′,8-^3H] adenosine 3′,5′-cyclic phosphate (1 μCi/μl; Amersham Pharmacia Biotech., Piscataway, N.J.) is diluted 1:2000 with assay buffer (50 mM tris/HCl pH 7.5, 8.3 mM MgCl2, 1.7 mM EDTA) to a concentration of 0.0005 μCi/μl. The enzyme reaction is finally started by addition of 50 μl (0.025 μCi) of the diluted substrate. The test batches are incubated for 60 min at 20° C. and the reaction is stopped by addition of 25 μl of a suspension containing 18 mg/ml of Yttrium Scintillation Proximity Beads (Amersham Pharmacia Biotech., Piscataway, N.J.). The microtiter plates are sealed using a film and allowed to stand for 60 min at 20° C. Subsequently, the plates are measured for 30 s per hollow in a Microbeta scintillation counter (Wallac Inc., Atlanta, Ga.). IC50 values are determined by means of graphic plotting of the substance concentration against the percentage inhibition.
The PDE 10A-inhibiting action of the compounds according to the invention may be shown by the following examples: […]
In general terms: In a scintillation proximity assay essentially only radioactivity close to the scintillant gives light.

For test [1], the system named is haloperidol catalepsy. Kind of test: Catalepsy test on rats (potentiation of haloperidol catalepsy). In kind it is in vivo. The note with it: 3 mg/kg intraperitoneal together with haloperidol (0.3 mg/kg s.c.), significant.
Protocol: The period of time which elapses up to the correction of an imposed position can be used as a measure of the intensity of catalepsy.
A low dose of haloperidol (0.3 mg/kg s.c.) is given on its own 30 min before the catalepsy test or administered together with the compound. In order to measure the cataleptic behavior, both forepaws of the rat are put onto a block of wood of 9 cm height and 5.5 cm width×5.5 cm depth. The time which elapses until an animal pulls its forepaws down from the block again is recorded as the duration of catalepsy. All rats are taken from the block of wood after 60 seconds at the latest. The data acquired from each treatment group (10 animals in each case) are analyzed statistically by means of variance analysis (ANOVA).
For test [2], the system named is haloperidol catalepsy. The note with it: described in EP-A 1 250 923; cited from earlier work.

T1 sequence (Q9Y233 1-779 isoform Q9Y233-1): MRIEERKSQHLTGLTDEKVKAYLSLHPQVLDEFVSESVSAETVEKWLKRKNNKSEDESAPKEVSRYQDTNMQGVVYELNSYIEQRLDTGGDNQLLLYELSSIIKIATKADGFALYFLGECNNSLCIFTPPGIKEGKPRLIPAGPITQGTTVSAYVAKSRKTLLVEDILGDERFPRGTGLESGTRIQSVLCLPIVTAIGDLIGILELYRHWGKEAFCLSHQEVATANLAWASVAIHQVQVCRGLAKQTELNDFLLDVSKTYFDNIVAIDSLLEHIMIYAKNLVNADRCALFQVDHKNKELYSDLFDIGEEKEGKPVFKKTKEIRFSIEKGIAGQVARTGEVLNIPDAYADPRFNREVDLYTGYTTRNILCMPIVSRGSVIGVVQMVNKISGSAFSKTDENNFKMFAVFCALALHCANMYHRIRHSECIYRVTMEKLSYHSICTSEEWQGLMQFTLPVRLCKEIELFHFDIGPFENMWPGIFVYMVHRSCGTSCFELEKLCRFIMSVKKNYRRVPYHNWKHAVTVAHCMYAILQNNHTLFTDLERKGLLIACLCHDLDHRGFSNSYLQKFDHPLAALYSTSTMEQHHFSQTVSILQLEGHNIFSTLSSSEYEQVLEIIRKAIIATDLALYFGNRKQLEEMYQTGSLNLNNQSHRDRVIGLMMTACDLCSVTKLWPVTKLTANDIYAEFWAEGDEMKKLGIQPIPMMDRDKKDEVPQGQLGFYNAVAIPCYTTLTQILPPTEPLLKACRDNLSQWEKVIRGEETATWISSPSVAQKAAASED

In the case of `COc1cc(Oc2nc(-c3ccc(C)nc3)nn3c(C)nc(C)c23)cc(OC)c1OC` [Example 9], the IC50 on PDE 10A stood at 0.038 µM.
`COc1cc(Oc2nc(-c3cccnc3)nn3c(C(C)C)nc(C)c23)cc(OC)c1OC` [Example 10, 7-isopropyl-5-methyl-2-(3-pyridinyl)-4-(3,4,5-trimethoxyphenoxy)imidazo[5,1-f][1,2,4]triazine]: at PDE 10A, the IC50 amounted to 0.008 µM.
Consider `COc1cc(Nc2nc(-c3cnc(C)s3)nn3c(C)nc(C)c23)cc(OC)c1OC` [Example 12, 5,7-Dimethyl-2-(2-methyl-1,3-thiazol-5-yl)-N-(3,4,5-trimethoxyphenyl)imidazo-[5,1-f][1,2,4]triazin-4-amine], for which the IC50 at PDE 10A was 0.093 µM.
Still for that read-out and setting: next, `COc1cc(Nc2nc(-c3ccncc3)nn3c(C)nc(C)c23)cc(OC)c1OC` [Example 14]: 0.15 µM.
In the case of `COc1cc(Nc2nc(-c3cccnc3)nn3c(C)nc(C)c23)cc(OC)c1OC` [Example 16], the “increase in the duration of catalepsy” value in the test with haloperidol catalepsy [1] came to 103%. Also, the 50% inhibitory concentration (IC50) at PDE 10A was found to be 0.03 µM.
For the compound `COc1ccc(Cc2nccc3cc(OC)c(OC)cc23)cc1OC` [papaverine], the “effect on haloperidol catalepsy” value in the test on haloperidol catalepsy [2] is “potentiation of haloperidol catalepsy”.

As usually defined, the IC50 is the midpoint of a concentration-inhibition curve.
